According to the NIST ThermoML archive (doi:10.1021/je034087q):

Assay: xn = mol fraction of the nth substance listed

CC(C)=O [acetone] + O=C=O
Conditions | mass density [kg/m3]
318.15 K, 8180 kPa, Fluid (supercritical or subcritical phases), x2 = 0.902 | 715
318.15 K, 8410 kPa, Fluid (supercritical or subcritical phases), x2 = 0.902 | 722
318.15 K, 8570 kPa, Fluid (supercritical or subcritical phases), x2 = 0.902 | 726
318.15 K, 8810 kPa, Fluid (supercritical or subcritical phases), x2 = 0.902 | 732
318.15 K, 8960 kPa, Fluid (supercritical or subcritical phases), x2 = 0.902 | 735
318.15 K, 9180 kPa, Fluid (supercritical or subcritical phases), x2 = 0.902 | 738
318.15 K, 9410 kPa, Fluid (supercritical or subcritical phases), x2 = 0.902 | 744
318.15 K, 9570 kPa, Fluid (supercritical or subcritical phases), x2 = 0.902 | 746
318.15 K, 9780 kPa, Fluid (supercritical or subcritical phases), x2 = 0.902 | 751
318.15 K, 9900 kPa, Fluid (supercritical or subcritical phases), x2 = 0.902 | 754
318.15 K, 10070 kPa, Fluid (supercritical or subcritical phases), x2 = 0.902 | 756
318.15 K, 10330 kPa, Fluid (supercritical or subcritical phases), x2 = 0.902 | 757
318.15 K, 10540 kPa, Fluid (supercritical or subcritical phases), x2 = 0.902 | 763
318.15 K, 10770 kPa, Fluid (supercritical or subcritical phases), x2 = 0.902 | 766
318.15 K, 10970 kPa, Fluid (supercritical or subcritical phases), x2 = 0.902 | 770
318.15 K, 11190 kPa, Fluid (supercritical or subcritical phases), x2 = 0.902 | 774
318.15 K, 11500 kPa, Fluid (supercritical or subcritical phases), x2 = 0.902 | 776
318.15 K, 11830 kPa, Fluid (supercritical or subcritical phases), x2 = 0.902 | 781
318.15 K, 12140 kPa, Fluid (supercritical or subcritical phases), x2 = 0.902 | 785
318.15 K, 12450 kPa, Fluid (supercritical or subcritical phases), x2 = 0.902 | 789
318.15 K, 12710 kPa, Fluid (supercritical or subcritical phases), x2 = 0.902 | 793
318.15 K, 13050 kPa, Fluid (supercritical or subcritical phases), x2 = 0.902 | 795
318.15 K, 13370 kPa, Fluid (supercritical or subcritical phases), x2 = 0.902 | 798
318.15 K, 13700 kPa, Fluid (supercritical or subcritical phases), x2 = 0.902 | 803
318.15 K, 14060 kPa, Fluid (supercritical or subcritical phases), x2 = 0.902 | 807
318.15 K, 14370 kPa, Fluid (supercritical or subcritical phases), x2 = 0.902 | 809
318.15 K, 14610 kPa, Fluid (supercritical or subcritical phases), x2 = 0.902 | 812
318.15 K, 14870 kPa, Fluid (supercritical or subcritical phases), x2 = 0.902 | 815
318.15 K, Liquid, Other PVT measurement, x2 = 0.902 | 709
323.15 K, 1690 kPa, Fluid (supercritical or subcritical phases), x2 = 0.186 | 764
323.15 K, 2050 kPa, Fluid (supercritical or subcritical phases), x2 = 0.186 | 767
323.15 K, 2920 kPa, Fluid (supercritical or subcritical phases), x2 = 0.186 | 770
323.15 K, 4190 kPa, Fluid (supercritical or subcritical phases), x2 = 0.383 | 789
323.15 K, 4500 kPa, Fluid (supercritical or subcritical phases), x2 = 0.186 | 772
323.15 K, 5090 kPa, Fluid (supercritical or subcritical phases), x2 = 0.576 | 798
323.15 K, 5870 kPa, Fluid (supercritical or subcritical phases), x2 = 0.383 | 795
323.15 K, 6050 kPa, Fluid (supercritical or subcritical phases), x2 = 0.186 | 775
323.15 K, 6120 kPa, Fluid (supercritical or subcritical phases), x2 = 0.576 | 802
323.15 K, 7330 kPa, Fluid (supercritical or subcritical phases), x2 = 0.186 | 777
323.15 K, 7430 kPa, Fluid (supercritical or subcritical phases), x2 = 0.576 | 810
323.15 K, 7470 kPa, Fluid (supercritical or subcritical phases), x2 = 0.772 | 783
323.15 K, 7570 kPa, Fluid (supercritical or subcritical phases), x2 = 0.811 | 760
323.15 K, 7780 kPa, Fluid (supercritical or subcritical phases), x2 = 0.811 | 764
323.15 K, 7880 kPa, Fluid (supercritical or subcritical phases), x2 = 0.383 | 800
323.15 K, 7930 kPa, Fluid (supercritical or subcritical phases), x2 = 0.772 | 787
323.15 K, 7930 kPa, Fluid (supercritical or subcritical phases), x2 = 0.811 | 769
323.15 K, 8250 kPa, Fluid (supercritical or subcritical phases), x2 = 0.882 | 703
323.15 K, 8280 kPa, Fluid (supercritical or subcritical phases), x2 = 0.811 | 774
323.15 K, 8420 kPa, Fluid (supercritical or subcritical phases), x2 = 0.772 | 792
323.15 K, 8500 kPa, Fluid (supercritical or subcritical phases), x2 = 0.882 | 712
323.15 K, 8620 kPa, Fluid (supercritical or subcritical phases), x2 = 0.811 | 778
323.15 K, 8630 kPa, Fluid (supercritical or subcritical phases), x2 = 0.882 | 716
323.15 K, 8710 kPa, Fluid (supercritical or subcritical phases), x2 = 0.186 | 781
323.15 K, 8750 kPa, Fluid (supercritical or subcritical phases), x2 = 0.902 | 678
323.15 K, 8790 kPa, Fluid (supercritical or subcritical phases), x2 = 0.882 | 719
323.15 K, 8860 kPa, Fluid (supercritical or subcritical phases), x2 = 0.933 | 586
323.15 K, 8880 kPa, Fluid (supercritical or subcritical phases), x2 = 0.933 | 590
323.15 K, 8920 kPa, Fluid (supercritical or subcritical phases), x2 = 0.902 | 683
323.15 K, 8930 kPa, Fluid (supercritical or subcritical phases), x2 = 0.882 | 721
323.15 K, 8930 kPa, Fluid (supercritical or subcritical phases), x2 = 0.933 | 594
323.15 K, 8960 kPa, Fluid (supercritical or subcritical phases), x2 = 0.576 | 813
323.15 K, 8970 kPa, Fluid (supercritical or subcritical phases), x2 = 0.772 | 796
323.15 K, 8980 kPa, Fluid (supercritical or subcritical phases), x2 = 0.952 | 495
323.15 K, 8990 kPa, Fluid (supercritical or subcritical phases), x2 = 0.933 | 601
323.15 K, 9000 kPa, Fluid (supercritical or subcritical phases), x2 = 0.948 | 540
323.15 K, 9000 kPa, Fluid (supercritical or subcritical phases), x2 = 0.952 | 497
323.15 K, 9020 kPa, Fluid (supercritical or subcritical phases), x2 = 0.902 | 687
323.15 K, 9030 kPa, Fluid (supercritical or subcritical phases), x2 = 0.952 | 502
323.15 K, 9040 kPa, Fluid (supercritical or subcritical phases), x2 = 0.933 | 606
323.15 K, 9060 kPa, Fluid (supercritical or subcritical phases), x2 = 0.948 | 549
323.15 K, 9060 kPa, Fluid (supercritical or subcritical phases), x2 = 0.952 | 505
323.15 K, 9090 kPa, Fluid (supercritical or subcritical phases), x2 = 0.952 | 510
323.15 K, 9100 kPa, Fluid (supercritical or subcritical phases), x2 = 0.933 | 613
323.15 K, 9110 kPa, Fluid (supercritical or subcritical phases), x2 = 0.882 | 728
323.15 K, 9120 kPa, Fluid (supercritical or subcritical phases), x2 = 0.948 | 559
323.15 K, 9120 kPa, Fluid (supercritical or subcritical phases), x2 = 0.952 | 514
323.15 K, 9140 kPa, Fluid (supercritical or subcritical phases), x2 = 0.952 | 519
323.15 K, 9160 kPa, Fluid (supercritical or subcritical phases), x2 = 0.902 | 690
323.15 K, 9170 kPa, Fluid (supercritical or subcritical phases), x2 = 0.952 | 523
323.15 K, 9180 kPa, Fluid (supercritical or subcritical phases), x2 = 0.933 | 618
323.15 K, 9190 kPa, Fluid (supercritical or subcritical phases), x2 = 0.952 | 527
323.15 K, 9200 kPa, Fluid (supercritical or subcritical phases), x2 = 0.948 | 568
323.15 K, 9220 kPa, Fluid (supercritical or subcritical phases), x2 = 0.952 | 531
323.15 K, 9240 kPa, Fluid (supercritical or subcritical phases), x2 = 0.933 | 624
323.15 K, 9250 kPa, Fluid (supercritical or subcritical phases), x2 = 0.952 | 537
323.15 K, 9270 kPa, Fluid (supercritical or subcritical phases), x2 = 0.902 | 694
323.15 K, 9290 kPa, Fluid (supercritical or subcritical phases), x2 = 0.952 | 541
323.15 K, 9300 kPa, Fluid (supercritical or subcritical phases), x2 = 0.948 | 579
323.15 K, 9320 kPa, Fluid (supercritical or subcritical phases), x2 = 0.952 | 546
323.15 K, 9330 kPa, Fluid (supercritical or subcritical phases), x2 = 0.933 | 630
323.15 K, 9350 kPa, Fluid (supercritical or subcritical phases), x2 = 0.811 | 787
323.15 K, 9350 kPa, Fluid (supercritical or subcritical phases), x2 = 0.952 | 550
323.15 K, 9380 kPa, Fluid (supercritical or subcritical phases), x2 = 0.882 | 732
323.15 K, 9380 kPa, Fluid (supercritical or subcritical phases), x2 = 0.952 | 556
323.15 K, 9400 kPa, Fluid (supercritical or subcritical phases), x2 = 0.902 | 699
323.15 K, 9410 kPa, Fluid (supercritical or subcritical phases), x2 = 0.933 | 637
323.15 K, 9410 kPa, Fluid (supercritical or subcritical phases), x2 = 0.948 | 590
323.15 K, 9430 kPa, Fluid (supercritical or subcritical phases), x2 = 0.952 | 561
323.15 K, 9450 kPa, Fluid (supercritical or subcritical phases), x2 = 0.772 | 798
323.15 K, 9480 kPa, Fluid (supercritical or subcritical phases), x2 = 0.952 | 567
323.15 K, 9520 kPa, Fluid (supercritical or subcritical phases), x2 = 0.902 | 702
323.15 K, 9520 kPa, Fluid (supercritical or subcritical phases), x2 = 0.933 | 642
323.15 K, 9520 kPa, Fluid (supercritical or subcritical phases), x2 = 0.952 | 571
323.15 K, 9540 kPa, Fluid (supercritical or subcritical phases), x2 = 0.948 | 602
323.15 K, 9560 kPa, Fluid (supercritical or subcritical phases), x2 = 0.383 | 803
323.15 K, 9560 kPa, Fluid (supercritical or subcritical phases), x2 = 0.952 | 578
323.15 K, 9620 kPa, Fluid (supercritical or subcritical phases), x2 = 0.952 | 582
323.15 K, 9630 kPa, Fluid (supercritical or subcritical phases), x2 = 0.933 | 649
323.15 K, 9650 kPa, Fluid (supercritical or subcritical phases), x2 = 0.882 | 736
323.15 K, 9660 kPa, Fluid (supercritical or subcritical phases), x2 = 0.948 | 613
